Results taken from US8153658B2, “Piperidine derivative or salt thereof” (Astellas Pharma, Inc., priority 2006, dated 2012).
Where a name gives a salt, the structure may show the parent alone.

Legend:
human CaSR = molecular target: T1, human CaSR (Homo sapiens, UniProt P41180); test: Human calcium sensing receptor (CaSR) agonism test (Fluo-3 / FLIPR); format: cell-based; conditions: HEK 293 cell stably expressing human CaSR; 0.5 mM Ca2+; 2 mM Ca2+ group = 100%; read-out: EC50 (compound concentration showing 50% human CaSR agonistic activity)
T1 construct: a human CaSR open reading frame (ORF) was contained in the pcDNA3.1/Zeo(+) vector; expressed in transfected cells
T1 sequence (P41180 20-1078): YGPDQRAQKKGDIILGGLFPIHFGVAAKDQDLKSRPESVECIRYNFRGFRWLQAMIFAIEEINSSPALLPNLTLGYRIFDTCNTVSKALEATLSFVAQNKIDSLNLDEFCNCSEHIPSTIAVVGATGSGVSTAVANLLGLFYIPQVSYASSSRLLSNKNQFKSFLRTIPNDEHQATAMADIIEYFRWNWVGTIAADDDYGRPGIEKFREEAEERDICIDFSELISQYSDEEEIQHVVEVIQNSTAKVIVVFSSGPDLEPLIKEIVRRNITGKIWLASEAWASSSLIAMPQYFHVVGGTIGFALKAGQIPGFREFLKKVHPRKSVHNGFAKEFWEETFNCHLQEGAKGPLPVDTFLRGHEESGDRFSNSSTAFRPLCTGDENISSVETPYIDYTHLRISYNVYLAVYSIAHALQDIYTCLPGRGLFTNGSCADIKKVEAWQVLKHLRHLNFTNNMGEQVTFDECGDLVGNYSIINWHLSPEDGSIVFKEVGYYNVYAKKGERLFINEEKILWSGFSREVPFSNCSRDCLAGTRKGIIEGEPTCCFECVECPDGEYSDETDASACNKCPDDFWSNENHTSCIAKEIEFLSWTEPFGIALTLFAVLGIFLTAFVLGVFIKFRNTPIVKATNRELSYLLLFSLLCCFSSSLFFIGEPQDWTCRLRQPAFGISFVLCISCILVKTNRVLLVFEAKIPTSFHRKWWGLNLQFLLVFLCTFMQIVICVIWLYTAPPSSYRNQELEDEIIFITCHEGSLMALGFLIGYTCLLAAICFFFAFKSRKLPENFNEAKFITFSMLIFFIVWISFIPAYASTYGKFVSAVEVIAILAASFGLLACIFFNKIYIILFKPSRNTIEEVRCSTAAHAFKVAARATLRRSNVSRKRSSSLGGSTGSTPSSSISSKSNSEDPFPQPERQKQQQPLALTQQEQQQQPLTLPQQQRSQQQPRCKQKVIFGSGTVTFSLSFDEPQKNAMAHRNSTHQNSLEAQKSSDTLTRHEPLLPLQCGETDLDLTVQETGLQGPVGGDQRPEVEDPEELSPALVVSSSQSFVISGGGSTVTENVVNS
Source text: Test 1. Human calcium sensing receptor (CaSR) agonism test
1) Preparation of Human CaSR Expression Vector
A DNA fragment coding for human CaSR was cloned in the standard method.
Illustratively, using 203 to 2387 of NM_000388 as a DNA fragment D4, and 2210 to 3633 as a DNA fragment B2, they were amplified using a human kidney cDNA (manufactured by Invitrogen) as the template and using a DNA polymerase (a registered trade name: Pyrobest, manufactured by Takara Bio), and respectively cloned into a pCR2.1 vector using a pCR2.1-Topo vector (manufactured by Invitrogen). Next, the DNA fragments prepared by digesting the pCR2.1-D4 with SpeI and XbaI were inserted into the same sites of pcDNA3.1/Zeo(+) vector. Successively, the fragments prepared by digesting pCR2.1-B2 with SacI and XbaI were inserted into the SacI and XbaI sites of previously prepared pcDNA3.1/Zeo(+)-D4(SpeI-XbaI), thereby obtaining a human CaSR expression vector pcDNA3.1/Zeo(+)-hCaSR in which a human CaSR open reading frame (ORF) was contained in the pcDNA3.1/Zeo(+) vector.
2) Preparation of Human CaSR Expression Cell
The human CaSR expression vector was transferred into a HEK 293 cell using a transfection reagent (registered trademark: FuGene 6, manufactured by Roche Diagnostics). After the gene transfer, this was cultured in a DMEM (manufactured by Invitrogen) medium containing 40 μg/ml Zeocin (registered trademark, manufactured by Invitrogen) and a 10% fetal bovine serum at 37° C. for 2 weeks in the presence of 5% CO2, thereby obtaining Zeocin-resistant clones. A human CaSR stably expressing HEK 293 clone was obtained from these clones by selection using the responsiveness to extracellular Ca^2+ as an index.
3) Human CaSR Agonism Test
The HEK 293 cell stably expressing human CaSR was inoculated into a poly-D-lysine-coated black clear bottom 96 well plate (manufactured by BD Biosciences). Hanks' balanced salt solution (HBSS) (Ca^2+ (−), Mg^2+ (−), manufactured by Invitrogen) containing a 20 mM HEPES (2-[4-(2-hydroxyethyl)-1-piperazinyl]ethanesulfonic acid) buffer (pH 7.4), 2.5 mM of probenecid (manufactured by Sigma), and 0.1% of bovine serum albumin was prepared as a washing buffer. After the inoculation and the subsequent overnight culturing, the medium was discarded, the washing buffer supplemented with 1 mM CaCl2 and 10 μM Fluo-3 AM (trade name, manufactured by DOJINDO) was added thereto in 100 μl per well portions, and then the incubation was carried out at 37° C. for 1 hour in the presence of 5% CO2. This was washed twice with 200 μl of the washing buffer, replaced by 100 μl of the washing buffer supplemented with 0.5 mM CaCl2 and allowed to stand still for 10 minutes, and then the responsiveness to each compound to be evaluated was detected using a plate reader for fluorometry image analysis use (registered trademark: FLIPR, manufactured by Molecular Devices). In this connection, the compound to be evaluated was used by optionally diluting with the washing buffer supplemented with 0.5 mM Ca^2+.
The human CaSR agonistic activity strength of each compound to be evaluated was calculated by defining the solvent group as 0% and the 2 mM of Ca^2+ in the final concentration group as 100%, and the compound concentration showing 50% activity (EC50) was calculated from a concentration-activity curve by the method of least squares.

[1] = Measurement of rat plasma calcium concentration; format: in vivo; conditions: normal male rats, single oral administration 3 mg/kg, 2 hours after administration, read-out: Rat plasma calcium concentration reducing ratio (%) 2 hours after administration (3 mg/kg)
Procedure: Test 2. Measurement of Rat Plasma Calcium Concentration and Plasma PTH Concentration
The compounds of the present invention were administered to rats, and their influences upon the plasma calcium concentration and the plasma PTH concentration were examined. The test was carried out by single oral administration of the compounds of the present invention and the control compounds to 5 to 6 normal male rats, or male rats with renal failure, respectively As a vehicle group, 0.5% of a methyl cellulose (MC) solution was administered at a dose of 5 ml/kg. As a reference compound, cinacalcet was dissolved in the MC solution and administered at a dose of 3 mg/kg. Each of the compounds of the present invention was dissolved or suspended in the MC solution, and administered at a dose of 1, 3 or 10 mg/kg.
Blood samples were collected from the orbital venous plexus under ether anesthesia before the administration and 2 hours, 4 hours, or 8 hours in some cases, after the administration, and the plasma calcium concentration was measured using Calcium E-Test Wako (manufactured by Wako Pure Chemical Industries), and the plasma PTH concentration was measured using a Rat Intact PTH ELISA Kit (manufactured by Immutopics).

CYP2D6 = CYP2D6 (Homo sapiens, UniProt P10635); test: Human CYP2D6 inhibition test; format: biochemical; parameters: purchased BD Gentest 456217; conditions: CYP2D6 7.5 pmol/mL; fluorescence substrate AMMC 1.5 μM; 37° C. 30 minutes
Chain of CYP2D6 (P10635 whole entry): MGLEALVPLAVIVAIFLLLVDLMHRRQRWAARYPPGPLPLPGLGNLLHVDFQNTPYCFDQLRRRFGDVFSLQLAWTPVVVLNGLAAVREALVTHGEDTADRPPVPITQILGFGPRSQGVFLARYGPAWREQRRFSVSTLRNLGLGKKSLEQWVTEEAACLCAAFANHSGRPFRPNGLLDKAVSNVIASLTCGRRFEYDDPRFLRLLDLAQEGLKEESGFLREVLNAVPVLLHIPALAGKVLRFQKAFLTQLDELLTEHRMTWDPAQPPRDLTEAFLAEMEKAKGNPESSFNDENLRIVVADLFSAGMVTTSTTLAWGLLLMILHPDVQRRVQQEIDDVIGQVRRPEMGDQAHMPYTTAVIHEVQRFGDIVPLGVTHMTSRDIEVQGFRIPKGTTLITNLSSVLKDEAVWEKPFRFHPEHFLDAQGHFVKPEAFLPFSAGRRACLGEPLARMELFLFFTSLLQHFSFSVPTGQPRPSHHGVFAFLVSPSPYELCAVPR
Procedure: Test 3. Human CYP2D6 Inhibition Test
Inhibitory activity evaluation for CYP2D6 was carried out by measuring it in accordance, roughly, with a reference (“Drug Metabolism and Disposition”, 2001, vol. 29, p. 1196-1200).
Final concentrations of the reagents in the enzyme reaction solution were respectively set to CYP2D6=7.5 pmol/mL (manufactured by BD Gentest, Catalog No. 456217), reduced type nicotinamide adenine dinucleotide phosphate (NADPH) regeneration system (0.0081 mM nicotinamide adenine dinucleotide phosphate (NADP+), 0.41 mM glucose-6-phosphate, 0.41 mM MgCl2, 0.4 units glucose-6-phosphate dehydrogenase), and a fluorescence substrate AMMC=1.5 μM, 100 mM potassium phosphate buffer (pH 7.4). Each compound was made into a 50% acetonitrile solution and added to the enzyme reaction solution (acetonitrile final concentration 2.5%). The enzyme reaction was carried out at 37° C. for 30 minutes, the reaction was stopped using a stopping liquid (0.1 M tris(hydroxymethyl)aminomethane (Tris-base):acetonitrile=20:80), and the fluorescence intensity was then measured. The concentration showing 50% inhibition (IC50) was calculated from the thus obtained fluorescence intensity, by defining the enzyme activity at a time of no compound addition as 100%.

Row | SMILES | EC50 (human CaSR) | inhibition in vivo at 3 mg/kg [1] | IC50 (CYP2D6)
1 | COc1cccc([C@@H](C)NCC2CCN(c3ncc(C(=O)O)cc3Cl)CC2c2ccccc2)c1 (stereo partly drawn) [Example 33, 5-chloro-6-[4-({[(1R)-1-(3-methoxyphenyl)ethyl]amino}methyl)-3-phenylpiperidin-1-yl]nicotinic acid hydrochloride] | 20 nM | 29% | –
2 | C[C@@H](NCC1CCN(c2c(F)cc(C(=O)O)cc2F)CC1c1ccccc1)c1csc2ccccc12 (some centres unmarked) [Example 87] | 11 nM | – | ≥ 20000 nM
3 | C[C@@H](NCC1CCN(c2ncc(C(=O)O)cc2Cl)CC1c1ccccc1)c1cccc2ccccc12 (stereo partly drawn) [Example 31, 5-chloro-6-[4-({[(1R)-1-(1-naphthyl)ethyl]amino}methyl)-3-phenylpiperidin-1-yl]nicotinic acid hydrochloride] | 5 nM | 24% | –
4 | C[C@@H](NCC1CN(C(=O)Nc2ccc(C(=O)O)cc2)CCC1c1cccc(F)c1)c1cccc2ccccc12 (stereo partly drawn) [Example 13, 4-({[4-(3-fluorophenyl)-3-({[(1R)-1-(1-naphthyl)ethyl]amino}methyl)piperidin-1-yl]carbonyl}amino)benzoic acid hydrochloride] | 2.9 nM | – | ≥ 20000 nM
5 | C[C@@H](NCC1CCN(c2c(F)cc(C(=O)O)cc2F)CC1c1ccccc1)c1cccc2ccccc12 (stereo partly drawn) [Example 52, 3,5-difluoro-4-[4-({[(1R)-1-(1-naphthyl)ethyl]amino}methyl)-3-phenylpiperidin-1-yl]benzoic acid hydrochloride] | 13 nM | 26% | ≥ 20000 nM
6 | C[C@@H](NCC1CCN(c2ncc(C(=O)O)cc2Cl)CC1c1ccccc1F)c1cccc2ccccc12 (stereo partly drawn) [Example 32, 5-chloro-6-[3-(2-fluorophenyl)-4-({[(1R)-1-(1-naphthyl)ethyl]amino}methyl)piperidin-1-yl]nicotinic acid hydrochloride] | 7.5 nM | 34% | –
7 | COc1cc(C(=O)O)ccc1NC(=O)N1CCC(c2ccccc2)C(CN[C@H](C)c2cccc3ccccc23)C1 (stereo partly drawn) [Example 3, 3-methoxy-4-({[3-({[(1R)-1-(1-naphthyl)ethyl]amino}methyl)-4-phenylpiperidin-1-yl]carbonyl}amino)benzoic acid] | 1.8 nM | – | ≥ 20000 nM
8 | C[C@@H](NCC1CCN(c2cc(C(F)(F)F)c(C(=O)O)cn2)CC1c1cccc(F)c1)c1cccc2ccccc12 (some centres unmarked) [Example 98] | 17 nM | – | ≥ 20000 nM
9 | C[C@@H](NCC1CCN(c2c(F)cc(-c3nnn[nH]3)cc2F)CC1c1ccccc1)c1cccc2ccccc12 (stereo partly drawn) [Example 53, (1R)—N-({1-[2,6-difluoro-4-(1H-tetrazol-5-yl)phenyl]-3-phenylpiperidin-4-yl}methyl)-1-(1-naphthyl)ethaneamine hydrochloride] | 3.8 nM | 20% | –
10 | C[C@@H](NCC1CCN(c2nc(C(=O)O)cs2)CC1c1ccccc1)c1cccc2ccccc12 (stereo partly drawn) [Example 39, 2-[4-({[(1R)-1-(1-naphthyl)ethyl]amino}methyl)-3-phenylpiperidin-1-yl]-1,3-thiazole-4-carboxylic acid hydrochloride] | 2.6 nM | 23% | –
11 | C[C@@H](NCC1CCN(c2ccc(C(=O)O)cn2)CC1c1ccccc1F)c1cccc2ccccc12 (some centres unmarked) [Example 104] | 14 nM | – | –
12 | C[C@@H](NCC1CCN(c2cccc(C(=O)O)n2)CC1c1ccccc1)c1cccc2ccccc12 (stereo partly drawn) [Example 30, 6-[4-({[(1R)-1-(1-naphthyl)ethyl]amino}methyl)-3-phenylpiperidin-1-yl]pyridine-2-carboxylic acid hydrochloride] | 5.5 nM | – | ≥ 20000 nM
13 | C[C@@H](NCC1CCN(c2cccc(C(=O)O)c2)CC1c1ccccc1)c1cccc2ccccc12 (stereo partly drawn) [Example 34, 3-[4-({[(1R)-1-(1-naphthyl)ethyl]amino}methyl)-3-phenylpiperidin-1-yl]benzoic acid hydrochloride] | 8.1 nM | – | ≥ 20000 nM
